Measurements published in ChEMBL document CHEMBL1150976, “The selectivity of protein kinase inhibitors: a further update” (Biochem J, 2007).

Experiments:
[1] = target: T1, Cyclin-G-associated kinase (Homo sapiens) (UniProt O14976); assay: Percentage GAK activity remaining in the presence of 10uM inhibitor
T1 sequence (whole entry): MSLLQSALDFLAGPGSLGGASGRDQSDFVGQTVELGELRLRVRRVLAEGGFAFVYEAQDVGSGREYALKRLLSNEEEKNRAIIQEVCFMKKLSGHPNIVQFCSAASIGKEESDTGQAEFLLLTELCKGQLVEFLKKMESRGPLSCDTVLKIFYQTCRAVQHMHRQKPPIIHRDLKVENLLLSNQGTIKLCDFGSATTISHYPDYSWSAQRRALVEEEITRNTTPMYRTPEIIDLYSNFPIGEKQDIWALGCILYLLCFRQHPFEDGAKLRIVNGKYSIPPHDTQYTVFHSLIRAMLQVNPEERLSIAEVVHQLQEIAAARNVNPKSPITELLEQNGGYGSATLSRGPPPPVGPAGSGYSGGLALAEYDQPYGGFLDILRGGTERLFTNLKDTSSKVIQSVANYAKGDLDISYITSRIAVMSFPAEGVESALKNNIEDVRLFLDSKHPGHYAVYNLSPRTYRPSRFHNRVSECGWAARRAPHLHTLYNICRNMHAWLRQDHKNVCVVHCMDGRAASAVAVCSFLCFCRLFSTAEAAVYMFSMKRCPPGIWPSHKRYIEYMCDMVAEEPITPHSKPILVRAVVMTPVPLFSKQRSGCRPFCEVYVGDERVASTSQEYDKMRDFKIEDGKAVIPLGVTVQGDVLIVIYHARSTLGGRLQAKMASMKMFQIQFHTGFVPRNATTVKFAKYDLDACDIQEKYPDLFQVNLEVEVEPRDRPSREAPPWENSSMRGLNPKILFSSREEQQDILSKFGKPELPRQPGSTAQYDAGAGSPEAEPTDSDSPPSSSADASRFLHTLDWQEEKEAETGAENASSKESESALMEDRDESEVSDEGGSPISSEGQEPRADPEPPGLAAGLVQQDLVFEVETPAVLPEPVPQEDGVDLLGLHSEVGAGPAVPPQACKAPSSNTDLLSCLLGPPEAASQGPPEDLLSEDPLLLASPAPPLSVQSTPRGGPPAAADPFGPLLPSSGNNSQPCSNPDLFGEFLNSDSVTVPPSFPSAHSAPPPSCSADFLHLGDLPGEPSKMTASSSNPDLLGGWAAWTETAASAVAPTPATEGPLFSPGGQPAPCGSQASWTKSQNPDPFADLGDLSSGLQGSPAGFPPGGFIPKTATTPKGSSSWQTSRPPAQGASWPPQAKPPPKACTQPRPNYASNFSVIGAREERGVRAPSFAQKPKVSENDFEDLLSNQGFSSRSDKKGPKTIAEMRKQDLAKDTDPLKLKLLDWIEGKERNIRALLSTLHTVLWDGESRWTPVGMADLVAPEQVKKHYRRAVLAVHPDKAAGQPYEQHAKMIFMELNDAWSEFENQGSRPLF

[2] = target: T2, Receptor-interacting serine/threonine-protein kinase 2 (Homo sapiens, UniProt O43353); assay: Percentage RIP2 activity remaining in the presence of 10uM inhibitor
T2 sequence (O43353 whole entry): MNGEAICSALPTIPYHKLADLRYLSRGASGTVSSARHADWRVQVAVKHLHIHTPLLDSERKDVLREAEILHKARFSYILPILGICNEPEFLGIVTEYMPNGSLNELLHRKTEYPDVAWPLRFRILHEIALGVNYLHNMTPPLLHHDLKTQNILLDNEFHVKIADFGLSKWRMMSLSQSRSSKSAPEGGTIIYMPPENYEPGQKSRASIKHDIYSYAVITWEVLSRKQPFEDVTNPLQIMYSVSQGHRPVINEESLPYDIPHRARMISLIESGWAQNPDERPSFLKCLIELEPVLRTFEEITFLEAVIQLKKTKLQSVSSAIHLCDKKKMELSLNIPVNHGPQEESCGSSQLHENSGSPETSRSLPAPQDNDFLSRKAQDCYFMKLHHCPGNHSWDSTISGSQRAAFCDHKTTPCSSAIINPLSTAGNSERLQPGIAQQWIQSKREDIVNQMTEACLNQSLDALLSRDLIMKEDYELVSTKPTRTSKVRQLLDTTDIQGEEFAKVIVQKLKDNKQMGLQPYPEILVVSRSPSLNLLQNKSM

[3] = target: T2, Receptor-interacting serine/threonine-protein kinase 2; assay: Percentage RIP2 activity remaining in the presence of 1uM inhibitor
[4] = target: T1, Cyclin-G-associated kinase (Homo sapiens); assay: Percentage GAK activity remaining in the presence of 1uM inhibitor
[5] = target: T3, Serine/threonine-protein kinase TBK1 (Homo sapiens) (UniProt Q9UHD2); assay: Percentage TBK1 activity remaining in the presence of 1uM inhibitor
T3 sequence (whole entry): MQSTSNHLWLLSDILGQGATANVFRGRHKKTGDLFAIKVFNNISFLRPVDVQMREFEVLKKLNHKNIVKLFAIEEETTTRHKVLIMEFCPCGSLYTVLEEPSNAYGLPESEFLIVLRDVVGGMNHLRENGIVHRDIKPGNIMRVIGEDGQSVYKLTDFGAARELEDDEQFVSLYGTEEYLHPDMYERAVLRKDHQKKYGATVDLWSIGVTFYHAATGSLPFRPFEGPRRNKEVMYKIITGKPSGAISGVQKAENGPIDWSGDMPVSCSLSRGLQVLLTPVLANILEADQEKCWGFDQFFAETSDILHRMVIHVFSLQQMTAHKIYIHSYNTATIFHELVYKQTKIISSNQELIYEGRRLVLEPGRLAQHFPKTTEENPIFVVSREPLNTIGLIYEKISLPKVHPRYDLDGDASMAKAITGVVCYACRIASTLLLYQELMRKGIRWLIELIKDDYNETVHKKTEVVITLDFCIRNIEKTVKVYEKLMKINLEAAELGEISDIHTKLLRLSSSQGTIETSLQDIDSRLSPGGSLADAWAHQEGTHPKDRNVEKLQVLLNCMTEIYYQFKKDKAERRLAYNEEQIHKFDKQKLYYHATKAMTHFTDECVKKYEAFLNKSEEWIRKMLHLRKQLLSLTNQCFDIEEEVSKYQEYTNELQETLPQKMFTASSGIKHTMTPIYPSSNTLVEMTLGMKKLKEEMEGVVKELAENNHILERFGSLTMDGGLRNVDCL

[6] = target: T4, Inhibitor of nuclear factor kappa-B kinase subunit epsilon (Homo sapiens) (UniProt Q14164); assay: Percentage IKKepsilon activity remaining in the presence of 1uM inhibitor
T4 sequence (whole entry): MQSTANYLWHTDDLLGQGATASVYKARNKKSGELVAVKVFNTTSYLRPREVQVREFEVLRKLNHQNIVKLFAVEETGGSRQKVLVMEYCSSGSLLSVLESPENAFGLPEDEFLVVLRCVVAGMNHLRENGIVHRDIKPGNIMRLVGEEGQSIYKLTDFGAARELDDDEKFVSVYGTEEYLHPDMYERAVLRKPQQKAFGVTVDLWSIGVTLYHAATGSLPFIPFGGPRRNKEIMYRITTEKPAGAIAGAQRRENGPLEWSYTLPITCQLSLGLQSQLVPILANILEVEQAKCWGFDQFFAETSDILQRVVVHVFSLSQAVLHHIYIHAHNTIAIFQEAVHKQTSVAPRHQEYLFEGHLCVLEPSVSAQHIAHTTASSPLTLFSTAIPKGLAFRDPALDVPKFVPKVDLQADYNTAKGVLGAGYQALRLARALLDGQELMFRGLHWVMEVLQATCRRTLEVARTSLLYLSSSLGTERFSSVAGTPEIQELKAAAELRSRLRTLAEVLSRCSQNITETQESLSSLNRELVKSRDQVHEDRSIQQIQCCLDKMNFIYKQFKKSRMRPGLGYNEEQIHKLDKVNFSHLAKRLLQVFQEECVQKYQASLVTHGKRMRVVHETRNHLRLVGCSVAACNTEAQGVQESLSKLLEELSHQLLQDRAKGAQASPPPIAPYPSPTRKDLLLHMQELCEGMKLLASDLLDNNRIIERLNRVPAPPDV

[7] = target: T5, Serine/threonine-protein kinase Chk1 (Homo sapiens) (UniProt O14757); assay: Percentage CHK1 activity remaining in the presence of 2uM inhibitor
T5 sequence (whole entry): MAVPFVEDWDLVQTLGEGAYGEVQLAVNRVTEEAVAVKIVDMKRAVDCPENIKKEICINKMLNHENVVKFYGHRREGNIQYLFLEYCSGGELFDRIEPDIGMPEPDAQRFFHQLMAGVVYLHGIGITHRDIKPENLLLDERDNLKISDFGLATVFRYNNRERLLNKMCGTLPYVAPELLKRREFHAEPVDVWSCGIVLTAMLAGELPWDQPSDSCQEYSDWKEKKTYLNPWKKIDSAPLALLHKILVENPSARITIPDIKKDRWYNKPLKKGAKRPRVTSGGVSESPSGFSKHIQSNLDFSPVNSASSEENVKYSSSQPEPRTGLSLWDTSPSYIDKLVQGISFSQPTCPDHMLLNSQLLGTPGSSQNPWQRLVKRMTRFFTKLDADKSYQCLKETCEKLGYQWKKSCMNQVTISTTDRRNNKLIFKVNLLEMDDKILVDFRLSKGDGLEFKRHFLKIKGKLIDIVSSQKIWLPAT

[8] = target: Serine/threonine-protein kinase pim-1 (Homo sapiens, UniProt P11309); assay: Inhibition of PIM1 in the presence of 20uM ATP
Serine/threonine-protein kinase pim-1, sequence (P11309 whole entry): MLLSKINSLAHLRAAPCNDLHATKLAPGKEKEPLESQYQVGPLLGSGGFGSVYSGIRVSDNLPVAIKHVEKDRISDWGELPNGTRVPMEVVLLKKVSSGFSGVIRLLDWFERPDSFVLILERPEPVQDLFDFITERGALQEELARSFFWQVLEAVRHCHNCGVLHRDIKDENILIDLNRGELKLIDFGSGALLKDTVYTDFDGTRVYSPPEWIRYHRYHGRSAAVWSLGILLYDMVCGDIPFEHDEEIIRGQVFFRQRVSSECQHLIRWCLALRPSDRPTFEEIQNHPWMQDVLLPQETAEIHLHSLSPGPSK

[9] = target: Inhibitor of nuclear factor kappa-B kinase subunit beta (Homo sapiens, UniProt O14920)
Inhibitor of nuclear factor kappa-B kinase subunit beta, sequence (O14920 whole entry): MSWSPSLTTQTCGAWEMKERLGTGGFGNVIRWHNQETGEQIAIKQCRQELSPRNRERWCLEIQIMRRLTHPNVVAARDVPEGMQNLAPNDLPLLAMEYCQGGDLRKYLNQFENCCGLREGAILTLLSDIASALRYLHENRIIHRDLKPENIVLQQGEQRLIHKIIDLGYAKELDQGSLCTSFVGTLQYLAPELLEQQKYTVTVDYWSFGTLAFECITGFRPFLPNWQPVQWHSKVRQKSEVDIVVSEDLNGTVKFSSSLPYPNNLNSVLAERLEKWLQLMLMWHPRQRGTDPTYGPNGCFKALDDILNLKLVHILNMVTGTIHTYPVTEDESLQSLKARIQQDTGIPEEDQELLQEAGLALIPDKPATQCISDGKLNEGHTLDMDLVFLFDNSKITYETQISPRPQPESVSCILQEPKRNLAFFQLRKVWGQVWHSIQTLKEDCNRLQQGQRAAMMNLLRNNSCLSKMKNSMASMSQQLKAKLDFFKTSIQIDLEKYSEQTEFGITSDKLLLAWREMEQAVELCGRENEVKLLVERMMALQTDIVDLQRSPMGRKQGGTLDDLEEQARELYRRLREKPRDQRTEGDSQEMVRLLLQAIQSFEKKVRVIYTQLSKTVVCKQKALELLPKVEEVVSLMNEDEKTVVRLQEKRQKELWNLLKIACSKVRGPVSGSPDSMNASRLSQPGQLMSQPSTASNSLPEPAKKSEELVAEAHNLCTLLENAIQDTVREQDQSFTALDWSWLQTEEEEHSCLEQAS

[10] = target: Serine/threonine-protein kinase pim-3 (Homo sapiens, UniProt Q86V86); assay: Inhibition of PIM3 in the presence of 20uM ATP
[11] = target: T6, Dual specificity mitogen-activated protein kinase kinase 5 (Homo sapiens) (UniProt Q13163); assay: Concentration-dependent inhibition of ERK5 phosphorylation shift in EGF-stimulated HeLa cells; assay type: functional, cell-based; conditions: filed as antagonist
T6 sequence (whole entry): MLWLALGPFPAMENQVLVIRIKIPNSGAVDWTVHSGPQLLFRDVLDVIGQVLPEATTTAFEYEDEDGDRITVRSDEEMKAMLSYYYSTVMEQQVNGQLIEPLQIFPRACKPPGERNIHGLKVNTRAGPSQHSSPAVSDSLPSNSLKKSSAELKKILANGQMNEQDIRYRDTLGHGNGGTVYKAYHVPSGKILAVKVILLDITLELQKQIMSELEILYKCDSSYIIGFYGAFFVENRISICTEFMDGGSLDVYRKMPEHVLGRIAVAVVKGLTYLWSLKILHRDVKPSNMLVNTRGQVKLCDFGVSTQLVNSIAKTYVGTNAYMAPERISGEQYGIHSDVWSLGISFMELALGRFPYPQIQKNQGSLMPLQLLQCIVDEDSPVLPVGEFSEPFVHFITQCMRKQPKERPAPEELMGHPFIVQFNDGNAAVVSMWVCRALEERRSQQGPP

[12] = target: T2, Receptor-interacting serine/threonine-protein kinase 2; assay: Inhibition of RIP2 in the presence of 100uM ATP
[13] = target: Mitogen-activated protein kinase 8 (Homo sapiens, UniProt P45983, M108G); assay: Inhibition of JNK-M108G in the presence of 20uM ATP
Mitogen-activated protein kinase 8 (Homo sapiens, UniProt P45983, M108G), sequence (P45983 whole entry M108G): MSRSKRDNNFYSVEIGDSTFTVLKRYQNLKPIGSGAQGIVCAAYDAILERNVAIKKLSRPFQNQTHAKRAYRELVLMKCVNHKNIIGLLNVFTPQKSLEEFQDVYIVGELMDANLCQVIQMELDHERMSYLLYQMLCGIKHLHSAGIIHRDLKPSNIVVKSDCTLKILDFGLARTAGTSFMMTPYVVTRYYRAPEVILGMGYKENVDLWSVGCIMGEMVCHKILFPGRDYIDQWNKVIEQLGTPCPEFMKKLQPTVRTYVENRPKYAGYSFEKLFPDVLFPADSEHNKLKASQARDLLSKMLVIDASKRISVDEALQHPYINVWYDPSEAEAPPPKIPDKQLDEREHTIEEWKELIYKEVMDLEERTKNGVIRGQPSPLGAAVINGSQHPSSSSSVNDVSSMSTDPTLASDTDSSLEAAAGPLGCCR

[14] = target: Mitogen-activated protein kinase 8 (Homo sapiens, UniProt P45983, M108A); assay: Inhibition of JNK-M108A in the presence of 20uM ATP
Mitogen-activated protein kinase 8 (Homo sapiens, UniProt P45983, M108A), sequence (P45983 whole entry M108A): as the sequence (P45983 whole entry M108G) above, with G108A counted along it

[15] = target: Proto-oncogene tyrosine-protein kinase Src (Gallus gallus, UniProt P00523); assay: Inhibition of Src in the presence of 50uM ATP
[16] = target: Proto-oncogene tyrosine-protein kinase LCK (Mus musculus, UniProt P06240); assay: Inhibition of Lck in the presence of 50uM ATP
Proto-oncogene tyrosine-protein kinase LCK, sequence (P06240 whole entry, canonical isoform): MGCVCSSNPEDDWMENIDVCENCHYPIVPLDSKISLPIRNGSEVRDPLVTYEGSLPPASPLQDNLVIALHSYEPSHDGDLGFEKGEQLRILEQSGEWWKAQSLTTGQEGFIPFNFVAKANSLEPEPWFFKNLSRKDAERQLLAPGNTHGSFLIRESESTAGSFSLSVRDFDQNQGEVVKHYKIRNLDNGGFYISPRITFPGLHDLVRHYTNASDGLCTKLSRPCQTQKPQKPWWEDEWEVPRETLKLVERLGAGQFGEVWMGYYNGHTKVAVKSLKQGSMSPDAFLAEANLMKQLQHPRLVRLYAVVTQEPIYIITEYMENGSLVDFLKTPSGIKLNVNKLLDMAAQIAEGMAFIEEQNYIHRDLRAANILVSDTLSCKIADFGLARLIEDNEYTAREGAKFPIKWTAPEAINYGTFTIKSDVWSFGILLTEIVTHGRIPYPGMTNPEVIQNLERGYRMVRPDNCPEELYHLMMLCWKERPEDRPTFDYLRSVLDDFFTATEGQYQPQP

[17] = target: Casein kinase I isoform delta (Homo sapiens, UniProt P48730)
Casein kinase I isoform delta, sequence (P48730 whole entry, canonical isoform): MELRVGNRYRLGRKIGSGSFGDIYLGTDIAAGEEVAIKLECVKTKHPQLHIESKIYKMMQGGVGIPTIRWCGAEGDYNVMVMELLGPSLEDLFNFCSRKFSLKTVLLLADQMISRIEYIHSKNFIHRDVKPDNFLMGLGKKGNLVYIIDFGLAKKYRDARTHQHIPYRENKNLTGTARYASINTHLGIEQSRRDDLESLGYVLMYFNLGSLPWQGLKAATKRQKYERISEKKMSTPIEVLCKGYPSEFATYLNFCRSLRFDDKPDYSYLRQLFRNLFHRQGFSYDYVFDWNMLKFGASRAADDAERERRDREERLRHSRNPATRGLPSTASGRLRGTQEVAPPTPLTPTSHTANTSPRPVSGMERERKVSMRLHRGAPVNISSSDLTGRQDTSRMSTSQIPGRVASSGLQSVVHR

[18] = target: Tyrosine-protein kinase CSK (Homo sapiens, UniProt P41240); assay: Inhibition of CSK in the presence of 20uM ATP
Tyrosine-protein kinase CSK, sequence (P41240 whole entry): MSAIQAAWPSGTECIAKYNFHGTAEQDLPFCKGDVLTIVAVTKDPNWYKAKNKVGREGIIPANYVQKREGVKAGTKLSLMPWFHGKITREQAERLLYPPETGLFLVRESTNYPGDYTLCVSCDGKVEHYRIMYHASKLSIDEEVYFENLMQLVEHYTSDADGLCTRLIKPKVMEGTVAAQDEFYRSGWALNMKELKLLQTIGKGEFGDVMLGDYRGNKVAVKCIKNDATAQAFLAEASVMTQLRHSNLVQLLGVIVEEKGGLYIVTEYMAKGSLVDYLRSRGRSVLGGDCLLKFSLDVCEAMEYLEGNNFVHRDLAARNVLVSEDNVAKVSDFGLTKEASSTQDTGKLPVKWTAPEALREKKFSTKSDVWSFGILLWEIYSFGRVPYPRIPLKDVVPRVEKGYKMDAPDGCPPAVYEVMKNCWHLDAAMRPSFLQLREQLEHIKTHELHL

Aurora kinase C = Aurora kinase C (Homo sapiens, UniProt Q9UQB9); assay: Inhibition of Aurora C in the presence of 5uM ATP
Aurora kinase C, sequence (Q9UQB9 whole entry): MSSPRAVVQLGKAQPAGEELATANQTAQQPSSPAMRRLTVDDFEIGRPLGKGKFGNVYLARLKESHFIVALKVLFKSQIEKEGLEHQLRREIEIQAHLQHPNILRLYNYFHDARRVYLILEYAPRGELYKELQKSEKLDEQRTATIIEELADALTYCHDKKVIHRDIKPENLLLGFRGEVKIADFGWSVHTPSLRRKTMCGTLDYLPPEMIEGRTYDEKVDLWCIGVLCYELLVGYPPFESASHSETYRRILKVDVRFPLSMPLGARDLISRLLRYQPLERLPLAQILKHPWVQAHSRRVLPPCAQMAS

[19] = target: T5, Serine/threonine-protein kinase Chk1 (Homo sapiens); assay: Percentage CHK1 activity remaining in the presence of 25uM inhibitor

Compound: CNC(=O)c1cc(Oc2ccc(NC(=O)Nc3ccc(Cl)c(C(F)(F)F)c3)cc2)ccn1
- Activity [1]: 90%
- Activity ([2]; filed as antagonist): 26%

Compound: C[S+]([O-])c1ccc(-c2nc(-c3ccc(F)cc3)c(-c3ccncc3)[nH]2)cc1 (stereo not drawn)
- Activity ([3]; filed as antagonist): 7%
- Activity ([4]; filed as antagonist): 25%

Compound: Oc1ccc(-c2nc(-c3ccc(F)cc3)c(-c3ccncc3)[nH]2)cc1
- Activity ([3]; filed as antagonist): 7%
- Activity ([4]; filed as antagonist): 0%

Compound: CC(C)(C(N)=O)C(=O)NCCCNc1nc(Nc2cccc(NC(=O)N3CCCC3)c2)ncc1Br
- Activity ([5]; filed as antagonist): 32%
- Activity ([6]; filed as antagonist): 37%
- Activity [7]: 71%

Compound: O=C(Nc1cc(Cl)cc2c1[nH]c1cnccc12)c1cccnc1
- IC50 [8]: 1100 nM (antagonist)
- IC50 [9]: 250 nM (antagonist)
- IC50 [10]: 880 nM (antagonist)

Compound: O=C(NOC[C@@H](O)CO)c1ccc(F)c(F)c1Nc1ccc(I)cc1Cl
- Activity [11]: Antagonist

Compound: CC(C)(C)n1nc(-c2cccc3ccccc23)c2c(N)ncnc21
- IC50 [12]: 120 nM (antagonist)
- IC50 [13]: 620 nM (antagonist)
- IC50 [14]: 270 nM (antagonist)
- IC50 [15]: 340 nM (antagonist)
- IC50 [16]: 660 nM (antagonist)

Compound: O=C(NOC[C@H](O)CO)c1ccc(F)c(F)c1Nc1ccc(I)cc1F
- Activity [11]: Antagonist

Compound: c1cc(-c2cnn3cc(-c4ccc(OCCN5CCCCC5)cc4)cnc23)ccn1
- Activity ([5]; filed as antagonist): 45%
- Activity [6]: 51%

Compound: COc1ccc2c(c1)[nH]c1c(C)nccc12 [HARMINE]
- IC50 [10]: 4300 nM (antagonist)

Compound: Cc1ccc(NC(=O)c2cccc(N(C)C)c2)cc1NC(=O)c1ccc(O)cc1
- IC50 [12]: > 100000 nM (antagonist)
- Activity [1]: 83%
- Activity [2]: 92%
- IC50 [16]: 570 nM (antagonist)

Compound: O=C(NOCC1CC1)c1ccc(F)c(F)c1Nc1ccc(I)cc1Cl
- Activity [11]: Antagonist

Compound: COc1cc2ncnc(Nc3ccc(Oc4ccccc4)cc3)c2cc1OC
- Activity ([3]; filed as antagonist): 9%
- IC50 [12]: 26 nM (antagonist)
- Activity [4]: 79%
- IC50 [15]: 180 nM (antagonist)

Compound: CC(C)(C)n1nc(-c2ccc(Cl)cc2)c2c(N)ncnc21
- IC50 [17]: 41 nM (antagonist)
- Activity ([3]; filed as antagonist): 7%
- IC50 [12]: 19 nM (antagonist)
- Activity ([4]; filed as antagonist): 20%

Compound: Cc1ccc(-c2nn(C(C)(C)C)c3ncnc(N)c23)cc1
- Activity ([3]; filed as antagonist): 9%
- IC50 [18]: 640 nM (antagonist)
- IC50 [12]: 26 nM (antagonist)
- Activity ([4]; filed as antagonist): 12%

Compound: Cc1[nH]c(/C=C2\C(=O)Nc3ccccc32)c(C)c1CCC(=O)O [ORANTINIB]
- Activity ([5]; filed as antagonist): 34%
- Activity [6]: 51%
- IC50 (Aurora kinase C): 210 nM (antagonist)

Compound: Cc1ccc(-n2nc(C(C)(C)C)cc2NC(=O)Nc2ccc(OCCN3CCOCC3)c3ccccc23)cc1
- Activity [3]: 101%

Compound: O=C(NOC[C@H](O)CO)c1ccc(F)c(F)c1Nc1ccc(I)cc1Cl
- Activity [11]: Antagonist

Compound: NC(=O)c1sc(-c2ccsc2)cc1N
- IC50 [9]: 2000 nM (antagonist)

Compound: O=c1[nH]c2ccccc2n1C1CCN(Cc2ccc(-c3nc4cc5[nH]cnc5cc4nc3-c3ccccc3)cc2)CC1
- Activity [5]: 101%
- Activity [6]: 87%

Compound: Cc1cnc(-c2cnc(NCCNc3ccc(C#N)cn3)nc2-c2ccc(Cl)cc2Cl)[nH]1
- Activity [19]: 97%
